Data as given in publication PMC6371759 (Chemical Science, 2018).

Biological target: human serum albumin (HSA) (Homo sapiens, UniProt P02768)
Test: tryptophan fluorescence quenching
Format: binding

Chain of human serum albumin (HSA) (P02768 25-609): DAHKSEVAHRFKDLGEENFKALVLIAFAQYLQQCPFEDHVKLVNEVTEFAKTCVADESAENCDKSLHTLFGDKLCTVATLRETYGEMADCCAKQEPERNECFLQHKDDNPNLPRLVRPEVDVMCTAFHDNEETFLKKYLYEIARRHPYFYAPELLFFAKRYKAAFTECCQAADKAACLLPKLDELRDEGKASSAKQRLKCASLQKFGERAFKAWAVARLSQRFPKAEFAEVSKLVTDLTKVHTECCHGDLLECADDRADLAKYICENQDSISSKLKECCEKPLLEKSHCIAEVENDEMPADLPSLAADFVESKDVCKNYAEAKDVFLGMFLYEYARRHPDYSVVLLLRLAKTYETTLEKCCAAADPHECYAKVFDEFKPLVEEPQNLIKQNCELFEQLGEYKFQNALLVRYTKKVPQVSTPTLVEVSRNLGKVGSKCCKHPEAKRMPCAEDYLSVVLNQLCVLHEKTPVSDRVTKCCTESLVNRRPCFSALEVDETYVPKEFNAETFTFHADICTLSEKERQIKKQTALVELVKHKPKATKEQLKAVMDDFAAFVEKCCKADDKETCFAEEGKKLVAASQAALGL

Work on C[C@]12CC[C@H]3[C@@H](CCC4=CC(=O)CC[C@@]43C)[C@@H]1CC[C@@H]2O [testosterone] yielded a Kd of 363 ± 83 µM.
